In BindingDB's records for doi:10.1016/j.bmcl.2017.09.011 (Alma Mater Studiorum-University of Bologna, 2017):

Target: DNA topoisomerase 2-alpha (Homo sapiens, UniProt P11388)
Assay: ChEBML_1696318
Description: Inhibition of recombinant human topoisomerase-2alpha expressed in Saccharomyces cerevisiae JEL1 harboring topoisomerase1 deletion mutant assessed as reduction in enzyme-mediated [gamma32P]ATP hydrolysis using relaxed pBR322 DNA as substrate after 8 mins

DNA topoisomerase 2-alpha, sequence (P11388 whole entry): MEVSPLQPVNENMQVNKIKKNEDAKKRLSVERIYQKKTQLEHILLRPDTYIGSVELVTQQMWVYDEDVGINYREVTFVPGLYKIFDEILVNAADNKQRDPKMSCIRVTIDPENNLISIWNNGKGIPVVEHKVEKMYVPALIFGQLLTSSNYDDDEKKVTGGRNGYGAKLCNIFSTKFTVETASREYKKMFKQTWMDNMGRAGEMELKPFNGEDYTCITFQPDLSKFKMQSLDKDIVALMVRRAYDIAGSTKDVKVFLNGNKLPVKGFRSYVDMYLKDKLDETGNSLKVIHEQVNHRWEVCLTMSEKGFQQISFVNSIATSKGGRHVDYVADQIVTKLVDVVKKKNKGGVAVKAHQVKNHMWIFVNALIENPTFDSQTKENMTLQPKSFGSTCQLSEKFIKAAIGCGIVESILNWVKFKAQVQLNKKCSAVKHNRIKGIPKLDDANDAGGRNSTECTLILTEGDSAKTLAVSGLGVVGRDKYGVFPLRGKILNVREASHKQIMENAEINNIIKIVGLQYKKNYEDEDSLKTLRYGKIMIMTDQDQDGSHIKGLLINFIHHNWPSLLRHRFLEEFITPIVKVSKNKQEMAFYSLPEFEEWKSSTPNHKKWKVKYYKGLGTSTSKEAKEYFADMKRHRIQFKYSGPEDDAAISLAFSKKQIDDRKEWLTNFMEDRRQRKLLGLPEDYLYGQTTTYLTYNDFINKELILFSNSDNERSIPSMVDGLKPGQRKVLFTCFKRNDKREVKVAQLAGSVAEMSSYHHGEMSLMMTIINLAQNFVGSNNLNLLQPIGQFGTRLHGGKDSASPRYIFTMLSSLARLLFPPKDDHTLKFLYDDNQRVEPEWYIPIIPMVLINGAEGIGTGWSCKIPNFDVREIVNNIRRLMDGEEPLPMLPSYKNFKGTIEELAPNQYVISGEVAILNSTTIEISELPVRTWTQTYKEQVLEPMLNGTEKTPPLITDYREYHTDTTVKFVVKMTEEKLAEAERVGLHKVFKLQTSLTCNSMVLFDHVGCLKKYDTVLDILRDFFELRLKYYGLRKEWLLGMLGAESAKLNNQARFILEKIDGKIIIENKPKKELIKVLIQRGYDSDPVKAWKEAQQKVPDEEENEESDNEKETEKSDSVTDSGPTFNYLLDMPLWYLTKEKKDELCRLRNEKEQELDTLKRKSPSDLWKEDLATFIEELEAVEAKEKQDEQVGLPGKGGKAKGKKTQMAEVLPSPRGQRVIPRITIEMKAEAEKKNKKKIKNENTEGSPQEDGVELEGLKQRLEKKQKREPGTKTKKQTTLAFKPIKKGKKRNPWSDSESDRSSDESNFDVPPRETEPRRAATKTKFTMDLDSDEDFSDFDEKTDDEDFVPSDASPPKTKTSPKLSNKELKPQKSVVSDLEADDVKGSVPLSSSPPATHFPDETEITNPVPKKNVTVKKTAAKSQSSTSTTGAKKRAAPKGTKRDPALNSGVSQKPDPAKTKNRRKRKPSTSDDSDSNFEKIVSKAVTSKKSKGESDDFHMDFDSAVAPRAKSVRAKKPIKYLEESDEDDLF

- IC50: 2.5 µM
SMILES: NCCCCNCC(O)COc1cc(O)c2c(=O)c3ccccc3oc2c1 (stereo unspecified)
